# Laboratory results: patent US10265303B2, “Hyperphenylalaninemia and treatments thereof” (BERGEN TEKNOLOGIOVERFØRING AS, priority 2015, dated 2019)
# What was measured:
# hPAH = target: T1, hPAH (Homo sapiens, UniProt P00439); assay: SPR screening and affinity determination on immobilized hPAH (Biacore T200); type: binding; details: SPR, 25° C., compound 0-500 μM in 5% DMSO; affinities said to be overestimated, relative KD reliable; read-out: KD (μM) ± SER
# T1 sequence (P00439 1-452): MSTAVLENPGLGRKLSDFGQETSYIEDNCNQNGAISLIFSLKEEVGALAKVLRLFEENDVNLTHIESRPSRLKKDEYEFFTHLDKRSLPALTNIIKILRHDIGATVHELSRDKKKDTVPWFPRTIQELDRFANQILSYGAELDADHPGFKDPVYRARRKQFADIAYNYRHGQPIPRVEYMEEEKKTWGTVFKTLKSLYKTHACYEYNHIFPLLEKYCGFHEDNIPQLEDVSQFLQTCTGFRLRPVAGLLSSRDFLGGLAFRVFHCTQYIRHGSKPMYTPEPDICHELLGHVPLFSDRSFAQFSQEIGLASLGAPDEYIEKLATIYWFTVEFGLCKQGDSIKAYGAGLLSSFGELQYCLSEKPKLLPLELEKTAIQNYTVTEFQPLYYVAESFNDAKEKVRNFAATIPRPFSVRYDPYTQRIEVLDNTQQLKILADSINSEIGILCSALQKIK
# Procedure: For detailed determination of binding affinity of Compound 53 and derivatives (FIG. 4) SPR was performed on a Biacore T200 (GE Healthcare Life Sciences) at a temperature of 25° C. A hPAH solution at 0.08 μg/μl in a final volume of 200 μl in acetate buffer pH 5.0 was immobilized onto series S sensor chip CM5 by the standard amine coupling procedure at a flow rate of 30 μl/min and PBS-P+ buffer as running buffer aiming for RU 20000. After the coupling reaction the surface of the sensor chip was washed to eliminate unbound species with HBS buffer (0.01 M NaHepes pH 7.4, 0.15 M NaCI) at steady flow of 20 μl/min for 1 hour until the baseline drift was around 0.05 RU/s; note that an early injection of 40 μl dithiothreitol (DTT) 10 mM in HBS allowed for this reduced washing time.
# For the screening, compounds were assayed at a concentration of 200 μM, with 5% DMSO in duplicates, including negative controls with 5% DMSO, positive controls, with 200 μM BH2 and solvent correction was also performed. For KD calculations, a compound concentration 0-500 μM (in 5% DMSO) were applied at otherwise analogous experimental design and analyses were performed using Biacore T200 Evaluation Software, version 2.0 (GE Healthcare Life Sciences).
# All the responses from the compounds of the screening were subjected to blank subtraction (negative control 5% DMSO), molecular weight adjustment and solvent correction to account for differences in bulk response. Next a cut-off value for the screening was selected based on the response of the positive control of our experiments: RU BH2+3*SD (2.88+3*1.79=8.27). In this manner, from the 11 derivatives of Compound 53 tested (see FIG. 4) we weeded out those compounds with a lower response than 8.27, namely #53.2, #53.9 and #53.11.
# In addition and for the rest of the compounds which continued our workflow, binding affinities were determined and the results are shown in the following table. The selected conditions to measure affinity are selected for high throughput measurements, but the affinities are overestimated though the relative KD for the different compounds are reliable.
# human wild-type PAH = target: T2, human wild-type PAH (Homo sapiens, UniProt P00439); assay: PAH immunoreactive protein level (Western blot) in HEK293 cells permanently expressing human wild-type PAH; type: cell-based; details: 0.04 mg/ml (average 116.7 μM), 1% DMSO, 8 h
# T2 construct: expressed in transfected cells
# T2 sequence (P00439 1-452): T1 sequence (P00439 1-452)
# Procedure: Human embryonic kidney cells (HEK293; Life Technologies™) permanently expressing WT-hPAH, prepared with the Flp-In system (Life Technologies™) were kindly provided by Per Knappskog, Haukeland University Hospital. About 1 million cells were grown in DMEM medium containing 4.5 g/l glucose, 10% (v/v) fetal calf serum, 0.25 mg/ml gentamycine, 2 mM L-glutamine and 50 μg/ml hygromycin B, and after 24 h medium was changed and the test compounds were added at a concentration of 0.02 mg/ml (1% DMSO). Eight hours later, the cells were harvested, and the pellets frozen in dry ice and stored at −80° C. […] To prepare the cell extracts, the frozen cell pellets were thawed in TBS (+protease inhibitor) buffer and cells were homogenized with 0.1% TX-100, incubated 15 minutes at 4° C. and extracts were clarified by centrifugation 20000 g for 15 min at 4° C. Protein concentrations were normalized using a Direct Detect Spectrometer (Merck Millipore).
# The 7 selected compounds as well as the first generation pharmacological chaperones (Compounds III and IV) were further analyzed in the presence and absence of BH2 (200 μM), added as precursor of BH4, to account for additive effects. A higher concentration of compound was also used 0.04 mg/ml (average of 116.7 μM) at otherwise same experimental conditions.
# [1] = target: full-length tetrameric wild-type hPAH (Homo sapiens, UniProt P00439); details: 137.8 μM compound, 2% DMSO
# Procedure: Tetrameric full length wild-type (WT) human PAH (hPAH) and truncated ΔN102/ΔC24-hPAH corresponding to a dimeric form containing the catalytic domain of known crystal structure were recombinantly expressed in E. coli fused to maltose-binding protein and purified by amylose-affinity chromatography and further cleaved and isolated to homogeneity essentially as described [Martinez, A., et al., Biochem. J., 1995. 306: p. 589-597]. Protein concentration was measured in a NanoDrop spectrophotometer (Thermo Scientific) using the absorbance at 280 nm and the theoretical molar extinction coefficient of 49780 M^−1 cm^−1 for WT-PAH and 46675 M^−1 cm^−1 for ΔN102/ΔC24-hPAH.
# PAH activity on isolated recombinant enzymes was measured at 37° C. for 1 min with quantification of L-Tyr formed by HPLC with fluorimetric detection, essentially as described [Martinez et al. supra] with the indicated concentrations of the compounds. […] After an equilibration of the plate at 37° C. for 3 min the reaction was initiated by adding 75 μM BH4 (Schircks Laboratories, Jona, Switzerland) in 5 mM DTT and stopped after 1 min by adding 50 μl of 2% (v/v) acetic acid in ethanol (all concentrations referred to a final reaction volume of 50 μl) prior to determination of L-Tyr produced by HPLC with fluorimetric detection (γexcitation=274 nm; γemission=304 nm). Controls with 2% DMSO without compound were routinely assayed as references for data processing. A BRAVO automated liquid handling platform was used in these assays.
# The steady-state kinetic parameters were estimated with 0.25 μg hPAH (0.965 μM subunit), 1 mM L-Phe and different BH4 concentrations in the range 0-400 μM, and with 100 μM BH4 and L-Phe (0-1 mM). The saturation curves were fitted to hyperbolic (for BH4) or sigmoidal (for L-Phe) kinetic models with SigmaPlot v. 9.0. (SPSS). Kinetic parameters are presented as mean±SEM obtained from nonlinear regression analysis.
# [2] = target: tyrosine hydroxylase (TH) (Homo sapiens, UniProt P07101); details: 68.9 μM, respect to 2% DMSO controls
# tyrosine hydroxylase (TH), sequence (P07101 whole entry): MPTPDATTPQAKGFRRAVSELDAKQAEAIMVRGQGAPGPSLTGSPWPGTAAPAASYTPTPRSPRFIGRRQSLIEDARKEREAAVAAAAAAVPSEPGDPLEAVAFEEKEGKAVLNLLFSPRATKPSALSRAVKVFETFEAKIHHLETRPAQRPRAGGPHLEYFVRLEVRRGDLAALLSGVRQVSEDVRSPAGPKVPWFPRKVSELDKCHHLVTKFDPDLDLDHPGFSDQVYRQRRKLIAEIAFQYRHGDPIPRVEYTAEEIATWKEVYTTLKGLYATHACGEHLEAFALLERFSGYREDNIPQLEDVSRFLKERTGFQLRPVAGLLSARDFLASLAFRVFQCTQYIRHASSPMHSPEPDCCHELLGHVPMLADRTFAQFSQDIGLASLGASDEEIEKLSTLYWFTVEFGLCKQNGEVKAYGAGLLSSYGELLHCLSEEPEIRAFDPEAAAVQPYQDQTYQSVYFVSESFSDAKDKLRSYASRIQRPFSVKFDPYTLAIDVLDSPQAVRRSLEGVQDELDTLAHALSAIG
compound,measurement,setting,value
"COc1cc(Cc2cnc(N)nc2N)cc(OC)c1OC [c53, trimethoprim]",Kd,hPAH,58.5 ± 35.8 µM
same,effect on PAH protein (FIG. 1A),human wild-type PAH,very large stimulating effect
same,effect on kinetic parameters for L-Phe (Vmax and S0.5),[1]; 100 μM BH4,does not affect the kinetic parameters for the substrate
same,effect on Vmax and Km for BH4,[1]; 1 mM L-Phe,decreased Vmax and Km for the cofactor
same,mode of inhibition towards BH4,[1]; 1 mM L-Phe,uncompetitive inhibition
same,effect on TH activity,[2],did not have large effect
